Measured values from patent publication US20230019236A1, “PROTEIN TYROSINE PHOSPHATASE INHIBITORS AND METHODS OF USE THEREOF” (Calico Life Sciences LLC, priority 2019, published 2023).

Legend:
[1] = test system: MC-38 murine colon adenocarcinoma; test: In vivo efficacy in MC38 syngeneic tumor model; details: 300 mg/kg/dose oral BID for 21 days
Experimental: All experiments were conducted in compliance with AbbVie's Institutional Animal Care and Use Committee and the National Institutes of Health Guide for Care and Use of Laboratory Animals guidelines in a facility accredited by the Association for the Assessment and Accreditation of Laboratory Animal Care. […] The mice were group-housed 10 per cage. Food and water were available ad libitum. Animals were acclimated to the animal facilities for a period of at least one week prior to commencement of experiments. Animals were tested in the light phase of a 12-hour light:12-hour dark schedule (lights on 0600 hours).
Cells were grown to passage 3 in vitro. […] The injection volume was 0.1 mL and was composed of a 1:1 mixture of S-MEM and Matrigel® (Corning, N.Y., USA). […] Following size match, treatments were initiated on the same day. […] Compound 124 was formulated in 5% DMSO, 5% Tween 80 (Polysorbate 80), 20% PEG-400 and 70% D5W (5% dextrose in water) and was dosed at 10 mL/kg. […] Tumor volume was calculated three times weekly. Measurements of the length (L) and width (W) of the tumor were taken via electronic caliper and the volume was calculated according to the following equation: V=L×W^2/2 using Study Director Version 3.1.399.22 (Studylog Systems, Inc, CA, USA). […] Reported TGIMax is the largest TGI value for any timepoint that tumors volumes were collected for that treatment group.

[2] = test system: B16F10 mouse melanoma cells; test: B16F10 IFNγ-induced cellular growth inhibition assay; type: cell-based; details: absence of IFNγ
Experimental: Example 294: B16F10 IFNγ-Induced Cellular Growth Inhibition Assay
B16F10 mouse melanoma cells (ATCC Cat# CRL-6475, Manassas, Va.) were seeded at a density of 500 cells per well in a 384-well clear bottom plate (Corning Cat#3765, Corning, N.Y.) in 25 μL total volume of DMEM+10% FBS (Sigma Cat# D6429 and Sigma Cat# F4135, St. Louis, MO). Cells were allowed to adhere overnight at 37° C. +5% CO2. On the following day, 12.5 μL of mouse IFNγ (RD systems Cat# 485-MI/CF, Minneapolis, Minn.) was added to half of the plate (columns 13-24) at a concentration of 2 ng/mL for a final assay concentration of 0.5 ng/mL of IFNγ. Media only (12.5 μL of DMEM+10% FBS) was added to the remainder of the plate (columns 1-12). Next, compounds resuspended in DMSO (Sigma Cat# D2650) at 100 mM were diluted in semi-log dilutions in DMSO ranging from 100 mM to 0.001 mM and DMSO only controls were included. The compound/DMSO dilutions were further diluted 1:250 in DMEM+10% FBS, and 12.5 μL of these dilutions were added in triplicates to cells of both treatment arms (with and without IFNγ). Final compound concentrations ranged from 100 μM to 0.001 μM with a final DMSO concentration of 0.1%. Compounds were only dosed in the inner 240 wells, avoiding the outer 2-well perimeter of the plate to minimize edge effects. Finally, the plate was loaded into an IncuCyte® S3 Live Cell Analysis System (Essen Bioscience-Sartorius, Ann Arbor, Mich.) maintained in a 37° C. +5% CO2 incubator, allowed to equilibrate for 2 hours, and imaged every 6 hours for 5 days. Confluence over time for compound dilutions in the presence and absence of IFNγ was measured. Growth inhibition values were obtained when the “DMSO/no IFNγ” control reached confluence >95%. At these time points, the percent growth inhibition of each compound at the indicated concentration was calculated relative to the “DMSO/with IFNγ” control.

[3] = test system: Pan T cells isolated from C57BL6 splenocytes; test: T cell activation assay (CD25/CD69 flow cytometry); type: cell-based, mouse; details: with TCR stimulation; Table 5
Experimental: Example 295: T cell activation and function assays
Pan T cells were isolated from C57BL6 splenocytes using a MACS Pan T cell isolation kit II (Miltenyi Biotec, Auburn, Calif.) according to the manufacturer's instructions. Isolated T cells (200,000 cells/well in a 96 well flat-bottom plate) were cultured in RPMI 1640 supplemented with 10% FBS, […] 2-mercatoethanol, 100 U/mL penicillin, and 100 μg/mL streptomycin, and incubated with the indicated concentration of compound or DMSO in duplicates. After 1 hour, mouse T cell activator CD3/CD28 Dynabeads (ThermoFisher Scientific, Waltham, Mass.) were added at a 1:5 beads to cells ratio to stimulate the T cells for 2 or 3 days as outlined below. T cells with or without compound were incubated in the absence of T cell activator beads (media only) as control.
After 2 days of stimulation, activation status of T cells was assessed by flow cytometry. T cells were first subjected to Zombie Violet™ Fixable Viability dye (BioLegend, San Diego, Calif.) for dead cell exclusion, washed and then stained with BUV805 labeled anti-CD8, APC-R700 labeled anti-CD25 (both from BD Biosciences, San Jose, Calif.) and PE labeled anti-CD69 (BioLegend, San Diego, Calif.) antibodies. After staining, cells were fixed with 2% paraformaldehyde and acquired on a BD LSRFortessa™ X-20 flow cytometer (BD Biosciences, San Jose, Calif.) using BD FACSDiva™ software. Data was analyzed using FlowJo V10 (Flow Jo LLC, Ashland, OR). Dead cells were excluded and frequencies of activated CD8 T cells was reported as the frequency of CD25+ or CD69+ cells within the CD8+ population. The expression level of CD25 and CD69 indicates the activation status of cells on a per cell basis and was evaluated by the mean fluorescence intensities (MFI) of CD25 and CD69.

[4] = target: T1, His tagged full-length PTP1B protein (Homo sapiens, UniProt P18031); test: Mobility Shift Assay (MSA) used to determine potency of PTP1B inhibitors; type: biochemical; details: Table 2
T1 construct: made in house
T1 sequence (P18031 with tags, fused parts or gaps): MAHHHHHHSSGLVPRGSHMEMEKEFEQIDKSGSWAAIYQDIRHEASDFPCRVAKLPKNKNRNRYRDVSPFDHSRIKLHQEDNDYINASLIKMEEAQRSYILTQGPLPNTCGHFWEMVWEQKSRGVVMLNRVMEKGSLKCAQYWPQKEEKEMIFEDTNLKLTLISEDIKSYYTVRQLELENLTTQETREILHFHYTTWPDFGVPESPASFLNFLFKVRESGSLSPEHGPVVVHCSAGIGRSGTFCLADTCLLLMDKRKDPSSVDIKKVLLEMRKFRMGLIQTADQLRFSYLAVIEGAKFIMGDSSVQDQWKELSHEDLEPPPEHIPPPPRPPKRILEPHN
Experimental: The enzymatic assay used to determine activity is a mobility shift assay using a LabChip EZ Reader by Caliper Life Sciences. The enzymatic reaction was carried out in assay buffer (50 mM HEPES pH 7.5, 1 mM EGTA, 10 mM EDTA, 0.01% Tween® 20, and 2 mM DTT). […] The enzyme (at 0.5 nM) was incubated with compound for 10 minutes at room temperature. […] The % inhibition was then used to calculate the IC50 values.

| Structure (SMILES) | tolerability [1] | growth inhibition in the absence of IFNγ [2] | T cell activation and T cell function [3] | IC50 [4] [nM] |
| --- | --- | --- | --- | --- |
| COc1ccc2cc(O)c(N3CC(=O)NS3(=O)=O)c(F)c2c1 [Compound 124, 5-(1-fluoro-3-hydroxy-7-methoxynaphthalen-2-yl)-1λ^6,2,5-thiadiazolidine-1,1,3-trione] | well tolerated, without obvious adverse health events | no observed growth inhibition | increased both T cell activation and T cell function | 1 to 10 |
| CC(C)(O)CCOc1ccc2cc(O)c(N3CC(=O)NS3(=O)=O)c(F)c2c1 [Compound 182, 5-[1-fluoro-3-hydroxy-7-(3-hydroxy-3-methylbutoxy)naphthalen-2-yl]-1λ^6,2,5-thiadiazolidine-1,1,3-trione] | well tolerated, without obvious adverse health events | – | increased both T cell activation and T cell function | – |
